{"source": "patent US20220257506A1", "about": "“Alkaline Drink” (WET HOLDINGS (GLOBAL) LIMITED, priority 2019, published 2022)", "origin": "cited, not measured here", "key": {"[1]": {"test_system": "testicular endocrine function", "conditions": "dogs, very high doses"}, "[2]": {"test_system": "adrenal and gonadal steroidogenesis", "conditions": "humans, up to 80 mg/day, basal conditions"}, "[3]": {"conditions": "acute dosing, murine stroke models"}, "[4]": {"conditions": "acute administration, humans"}, "[5]": {"assay": "not given", "remark": "listed apart in the source"}, "[6]": {"conditions": "humans"}}}
{"smiles": "CC[C@H](C)C(=O)O[C@H]1C[C@@H](C)C=C2C=C[C@H](C)[C@H](CC[C@@H]3C[C@@H](O)CC(=O)O3)[C@H]21", "note": "[lovastatin]", "values": [{"measurement": "testicular endocrine function", "setting": "[1]", "value": "reduction in testicular endocrine function"}, {"measurement": "effect on adrenal and gonadal steroidogenesis", "setting": "[2]", "value": "no effect on adrenal and gonadal steroidogenesis"}]}
{"smiles": "CCCCCc1cc(O)c2c(c1)OC(C)(C)[C@@H]1CCC(C)=C[C@@H]21", "note": "[THC, (−)-trans-Δ^9-tetrahydrocannabinol]", "values": [{"measurement": "cerebral BF", "setting": "[3]", "value": "increased cerebral BF"}, {"measurement": "BP and heart rate", "setting": "acute dosing, anaesthetised animals, conscious animals and animal models of stress or hypertension", "value": "reduced BP and heart rate"}, {"measurement": "BF in large arteries", "setting": "chronic dosing, anaesthetised animals", "value": "increased BF in large arteries"}, {"measurement": "BP", "setting": "chronic dosing, models of stress or hypertension", "value": "reduced BP"}, {"measurement": "HR", "setting": "[4]", "value": "increased HR"}]}
{"smiles": "C=C(C)[C@@H]1CCC(C)=C[C@H]1c1c(O)cc(CCCCC)cc1O", "note": "[CBD, Cannabidiol]", "values": [{"measurement": "decrease of blood pressure", "setting": "[5]; 600 mg single dose, nine healthy male volunteers", "value": "about 6 mm Hg"}, {"measurement": "resting blood pressure and blood pressure response to stress", "setting": "[5]; single dose, particularly cold stress, post-test periods", "value": "reduces resting blood pressure and the blood pressure response to stress"}, {"measurement": "abuse or dependence potential", "setting": "[6]", "value": "no effects indicative of any abuse or dependence potential"}]}
